Measurements taken from US8440724B2, “Inhibiting neurotransmitter reuptake” (Mayo Foundation for Medical Education and Research, priority 2008, dated 2013).

Key:
[1] = tested on: hSERT, hNET, hDAT; test: Human transporter binding: rank order and range of potency over the three transporters; conditions: from KD values
From the text: The program was modified to calculate the Hill coefficient (nH). Data are presented as geometric mean±S.E.M. of at least three independent experiments. One-component models and two-component models were compared using the root mean square error of each fit and the F test.

[2] = tested on: male C57BL/6J mice; test: Tail suspension test (TST) in mice; assay type: in vivo, mouse; conditions: mice, 15 mg/kg IP, FIG. 10A
Protocol: When mice are suspended by their tail, there is an initial period of agitation, followed by immobility. This test identifies antidepressant compounds, which decrease the duration of immobility.
Test compounds were prepared by formulating the compounds with a pharmaceutically acceptable carrier such as saline. […] Each mouse was then subjected to the tail-suspension test (TST). Each mouse (n>3) was suspended by its tail 45 cm above the table top with the use of adhesive tape placed 1 cm from the tip of its tail. Behavior was scored every 5 seconds throughout the 6-minute test as either mobile or immobile (FIG. 10A-D) or total duration of immobility during the 6-minute test (FIGS. 10E and 10H). Mice were considered immobile only when hanging passively and completely motionless. Scores for each behavior were expressed as total counts per 6-minute session.

[3] = tested on: rat 5-HT, NE and DA transport, synaptosomal preparations; test: Rat brain synaptosomal transport: rank order of potency; assay type: biochemical; conditions: from Ki values; S = 5HT, N = NE, D = DA
Protocol: The dissected tissues were separately homogenized in 20 volumes (cortical) or 40 volumes (striatal) of ice-cold, oxygenated HEPES buffer 0.32 M sucrose containing 11 mM glucose (pH 7.4) in a glass Potter-Elvehjem homogenizer with Teflon® pestle (8 strokes, 900 rpm). The homogenates were centrifuged at 1,000×g for 10 minutes. The resulting supernatant was decanted and further centrifuged at 20,000×g for 20 minutes at 4° C. […] The synaptosomal protein concentration was determined by using the BCA assay (Pierce Biotechnology Inc, Rockford, Ill.), according to the manufacturer's instructions. Synaptosomal protein (1.0-2.5 mg) was suspended in 1 mL oxygenated incubation buffer as defined above. Test amine compound was pre-incubated with the synaptosomal preparation for 30 minutes at 37° C. in a shaking water bath (80 oscillations/minute).

[4] = tested on: mice; test: Locomotor activity in motility chamber, mice; assay type: in vivo, mouse; conditions: 15 mg/kg IP, 10 minute intervals for 3 hours, FIG. 11
[5] = tested on: Male Sprague-Dawley rats; test: Forced swim test in rats; assay type: in vivo, rat; conditions: 15 mg/kg IP, FIG. 12A
Protocol: When rats are placed in a cylinder of water from which they cannot escape, they will remain immobile in the water for the majority of the test.
Water was changed between trials, and the procedure involved a pretest and a 5-minute test separated by 24 hours. During the pretest, rats (adapted to the experimental room for no less than one hour) were placed in the cylinder for 15 minutes. Following this initial exposure, the rats were dried with towels and transferred to a “drying cage” situated under a warming lamp. […] The following day, rats were transferred to the experimental room and acclimated for at least one hour.
The rat was considered immobile when floating motionless or making only those movements necessary to keep its head above the surface of the water. Scores for each behavior (swimming or immobility) were expressed as total counts per 5-minute session. Statistical analysis was performed using ANOVA followed by the Tukey test for post-hoc comparisons.

Structure (SMILES): CN(C)CCCN1c2ccccc2CCc2ccccc21 [Imipramine, reference compound]
- Potency (rank-order of potency of binding; S = hSERT, N = hNET, D = hDAT) [1]: S > N > D
- Mobility in TST (counts per 6-minute session) vs saline ([2]; 30 minutes before testing): significantly (P<0.02) increased mobility
- Immobility in TST (counts per 6-minute session) vs saline [2]: significantly (P<0.02) reduced immobility
- Potency (rank order, transport into rat brain synaptosomal preparations) [3]: N > S > D
- Effect on locomotor activity [4]: Only d-amphetamine caused a significant effect on locomotor activity
- Immobility in forced swim test vs saline [5]: statistically (P<0.04) less immobility
- Swimming in forced swim test vs saline [5]: statistically (P<0.04) more swimming behavior
